Numbered stars: 1 amine (or outer) side, 2 acyl side, 3 side chain; on linkers, the order of the positions; unused ones are H or OH. Square brackets hold non-standard residues; d marks the D form. Peptide text beside a SMILES is read from it. Cha = N[C@@H](CC1CCCCC1)C(=O)O; Suc = O=C(CCC(=O)[*:2])[*:1]; Ava = NCCCCC(=O)O

This assay concerns platelet. Description: Dog antiplatelet activity. It is filed as cell-based. The settings on record: read-out: Dog Antiplatelet IC₅₀.
For `CC[C@H](C)[C@H](NC(=O)[C@H](CCC(=O)O)NC(=O)[C@H](CCC(=O)O)NC(=O)[C@H](Cc1c[nH]c2ccccc12)NC(=O)[C@H](CC(=O)O)NC(=O)CNC(=O)CCCCN)C(=O)N1CCC[C@H]1C(=O)N[C@@H](CCC(=O)O)C(=O)N[C@@H](CCC(=O)O)C(=O)N[C@@H](C)C(=O)N[C@@H](CC1CCCCC1)C(=O)N[C@H](CCC(=O)O)C(=O)O` [Example 2] (H-[Ava]GDWEEIPEEA[Cha][dE]-OH), the IC50 was determined as 250 µM.
For the compound `CC[C@H](C)[C@H](NC(=O)[C@@H]1CCCN1C(=O)[C@H](CCC(=O)O)NC(=O)[C@H](Cc1ccc(O)cc1)NC(=O)CCC(=O)O)C(=O)N1CCC[C@H]1C(=O)N[C@@H](CCCNC(=N)N)C(=O)NCC(=O)N[C@@H](CC(=O)O)C(=O)N[C@@H](Cc1ccccc1)C(=O)N[C@H](CCC(=O)O)C(=O)O` [Example 4] (Suc-YEPIPRGDF[dE]-OH), the IC50 was 42 µM.
Turning to `CC[C@H](C)[C@H](NC(=O)[C@@H]1CCCN1C(=O)[C@H](CCC(=O)O)NC(=O)[C@H](Cc1ccc(OC)cc1)NC(=O)[C@H](CC(=O)O)NC(=O)CNC(=O)CCCCNC(=N)N)C(=O)N1CCC[C@H]1C(=O)N[C@@H](CCC(=O)O)C(=O)N[C@@H](CCC(=O)O)C(=O)N[C@@H](C)C(=O)N[C@@H](CC1CCCCC1)C(=O)N[C@H](CCC(=O)O)C(=O)O` [Example 5, 5GP-Gly-Asp-Tyr(OCH₃)-Glu-Pro-Ile-Pro-Glu-Glu-Ala-Cha-glu-OH], the IC50 amounted to 10 µM.
Regarding `CC[C@H](C)[C@H](NC(=O)[C@@H]1CCCN1C(=O)[C@H](CCC(=O)O)NC(=O)[C@H](Cc1ccc(OC)cc1)NC(=O)[C@H](CC(=O)O)NC(=O)CNC(=O)CCCCN)C(=O)N1CCC[C@H]1C(=O)N[C@@H](CCC(=O)O)C(=O)N[C@@H](CCC(=O)O)C(=O)N[C@@H](C)C(=O)N[C@@H](CC1CCCCC1)C(=O)N[C@H](CCC(=O)O)C(=O)O` [Example 3, 5AP-Gly-Asp-Tyr(OCH₃)-Glu-Pro-Ile-Pro-Glu-Glu-Ala-Cha-glu-OH], the IC50 came to 280 µM.
Consider `CC[C@H](C)[C@H](NC(=O)[C@@H]1CCCN1C(=O)[C@H](CCC(=O)O)NC(=O)[C@H](Cc1c[nH]c2ccccc12)NC(=O)[C@H](CC(=O)O)NC(=O)CNC(=O)CCCCNC(=N)N)C(=O)N1CCC[C@H]1C(=O)N[C@@H](CCC(=O)O)C(=O)N[C@@H](CCC(=O)O)C(=O)N[C@@H](C)C(=O)N[C@@H](CC1CCCCC1)C(=O)N[C@H](CCC(=O)O)C(=O)O` [Example 1], for which the IC50 amounted to 6 µM.

For the origin of these results see patent publication EP0468448B1, “Analogs of hirudin having antiplatelet activity” (MERRELL PHARMACEUTICALS INC., priority 1990, dated 1992).
